Experimental data as given in the supplement of paper PMC10307832.

Legend:
Experiment in all cases: relative viability (nuclei count vs DMSO), 5 days (fraction); higher = more cells survive
[1] = system: CAL-12T
Procedure, shortened: (§1)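 Values are medians from duplicate plates. Each reflects relative viability, defined as the nuclei count of treated wells over that of vehicle wells. Lung cancer cell lines in 1536-well plates were pin-tool dosed one day after seeding with one drug alone or with a fixed anchor-drug dose plus five library-drug doses (not always all listed) in √10 steps, then fixed, stained and imaged at 4× after 5 days.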

[2] = system: COR-L 105
Procedure, shortened: as §1

[3] = system: NCI-H1915
Procedure, shortened: as §1

[4] = system: HCC-827
Procedure, shortened: as §1

[5] = system: HCC-366
Procedure, shortened: as §1

[6] = system: NCI-H1437
Procedure, shortened: as §1

[7] = system: NCI-H1395
Procedure, shortened: as §1

[8] = system: NCI-H460
Procedure, shortened: as §1

[9] = system: HOP-62
Procedure, shortened: as §1

[10] = system: NCI-H23
Procedure, shortened: as §1

[11] = system: SK-LU-1
Procedure, shortened: as §1

[12] = system: NCI-H2009
Procedure, shortened: as §1

[13] = system: LCLC-103H
Procedure, shortened: as §1

[14] = system: A-427
Procedure, shortened: as §1

[15] = system: NCI-H2228
Procedure, shortened: as §1

[16] = system: NCI-H1755
Procedure, shortened: as §1

[17] = system: NCI-H727
Procedure, shortened: as §1

[18] = system: EMC-BAC-2
Procedure, shortened: as §1

[19] = system: HARA
Procedure, shortened: as §1

[20] = system: NCI-H1975
Procedure, shortened: as §1

[21] = system: NCI-H1355
Procedure, shortened: as §1

[22] = system: SW 1573
Procedure, shortened: as §1

CC1(C)CCC(c2ccc(Cl)cc2)=C(CN2CCN(c3ccc(C(=O)NS(=O)(=O)c4ccc(N[C@H](CCN5CCOCC5)CSc5ccccc5)c(S(=O)(=O)C(F)(F)F)c4)cc3)CC2)C1 [Navitoclax] + O=C(CCCCCCC(=O)Nc1ccccc1)NO [Vorinostat] (partner 1 µM)
relative viability ([1]; first compound 0.005 µM): 0.73
relative viability ([1]; first compound 0.01581 µM): 0.825
relative viability ([1]; first compound 0.05 µM): 0.901
relative viability ([1]; first compound 0.1581 µM): 0.806
relative viability ([1]; first compound 0.5 µM): 0.903
relative viability ([2]; first compound 0.005 µM): 0.853
relative viability ([2]; first compound 0.01581 µM): 0.946
relative viability ([2]; first compound 0.05 µM): 0.858
relative viability ([2]; first compound 0.1581 µM): 0.778
relative viability ([2]; first compound 0.5 µM): 0.745
relative viability ([3]; first compound 0.005 µM): 0.497
relative viability ([3]; first compound 0.01581 µM): 0.499
relative viability ([3]; first compound 0.05 µM): 0.556
relative viability ([3]; first compound 0.1581 µM): 0.481
relative viability ([3]; first compound 0.5 µM): 0.424
relative viability ([4]; first compound 0.005 µM): 0.951
relative viability ([4]; first compound 0.01581 µM): 0.902
relative viability ([4]; first compound 0.05 µM): 0.619
relative viability ([4]; first compound 0.1581 µM): 0.77
relative viability ([4]; first compound 0.5 µM): 0.907
relative viability ([5]; first compound 0.005 µM): 0.302
relative viability ([5]; first compound 0.01581 µM): 0.356
relative viability ([5]; first compound 0.1581 µM): 0.379
relative viability ([5]; first compound 0.5 µM): 0.306
relative viability ([6]; first compound 0.005 µM): 0.834
relative viability ([6]; first compound 0.01581 µM): 0.888
relative viability ([6]; first compound 0.05 µM): 0.847
relative viability ([6]; first compound 0.1581 µM): 0.88
relative viability ([6]; first compound 0.5 µM): 0.808
relative viability ([7]; first compound 0.005 µM): 0.653
relative viability ([7]; first compound 0.01581 µM): 0.862
relative viability ([7]; first compound 0.05 µM): 0.802
relative viability ([7]; first compound 0.1581 µM): 0.682
relative viability ([7]; first compound 0.5 µM): 0.659
relative viability ([8]; first compound 0.005 µM): 0.614
relative viability ([8]; first compound 0.01581 µM): 0.7
relative viability ([8]; first compound 0.05 µM): 0.561
relative viability ([8]; first compound 0.1581 µM): 0.645
relative viability ([8]; first compound 0.5 µM): 0.737
relative viability ([9]; first compound 0.005 µM): 0.669
relative viability ([9]; first compound 0.01581 µM): 0.644
relative viability ([9]; first compound 0.05 µM): 0.618
relative viability ([9]; first compound 0.1581 µM): 0.529
relative viability ([9]; first compound 0.5 µM): 0.842
relative viability ([10]; first compound 0.005 µM): 0.594
relative viability ([10]; first compound 0.01581 µM): 0.468
relative viability ([10]; first compound 0.05 µM): 0.505
relative viability ([10]; first compound 0.1581 µM): 0.478
relative viability ([10]; first compound 0.5 µM): 0.544
relative viability ([11]; first compound 0.005 µM): 0.787
relative viability ([11]; first compound 0.01581 µM): 0.776
relative viability ([11]; first compound 0.05 µM): 0.689
relative viability ([11]; first compound 0.1581 µM): 0.627
relative viability ([11]; first compound 0.5 µM): 0.516
relative viability ([12]; first compound 0.005 µM): 0.719
relative viability ([12]; first compound 0.01581 µM): 0.88
relative viability ([12]; first compound 0.05 µM): 0.759
relative viability ([12]; first compound 0.1581 µM): 0.728
relative viability ([12]; first compound 0.5 µM): 0.719
relative viability ([13]; first compound 0.005 µM): 0.73
relative viability ([13]; first compound 0.01581 µM): 0.928
relative viability ([13]; first compound 0.05 µM): 0.96
relative viability ([13]; first compound 0.1581 µM): 0.807
relative viability ([13]; first compound 0.5 µM): 0.665
relative viability ([14]; first compound 0.005 µM): 0.915
relative viability ([14]; first compound 0.01581 µM): 0.873
relative viability ([14]; first compound 0.05 µM): 0.91
relative viability ([14]; first compound 0.1581 µM): 0.892
relative viability ([14]; first compound 0.5 µM): 0.838
relative viability ([15]; first compound 0.005 µM): 1.13
relative viability ([15]; first compound 0.01581 µM): 0.639
relative viability ([15]; first compound 0.1581 µM): 0.397
relative viability ([15]; first compound 0.5 µM): 0.641
relative viability ([16]; first compound 0.005 µM): 0.778
relative viability ([16]; first compound 0.01581 µM): 0.798
relative viability ([16]; first compound 0.05 µM): 0.543
relative viability ([16]; first compound 0.1581 µM): 0.728
relative viability ([16]; first compound 0.5 µM): 0.691
relative viability ([17]; first compound 0.005 µM): 1.28
relative viability ([17]; first compound 0.01581 µM): 1.34
relative viability ([17]; first compound 0.05 µM): 0.901
relative viability ([17]; first compound 0.1581 µM): 1.12
relative viability ([17]; first compound 0.5 µM): 1.16
relative viability ([18]; first compound 0.005 µM): 0.413
relative viability ([18]; first compound 0.01581 µM): 0.507
relative viability ([18]; first compound 0.05 µM): 0.548
relative viability ([18]; first compound 0.1581 µM): 0.422
relative viability ([18]; first compound 0.5 µM): 0.418
relative viability ([19]; first compound 0.005 µM): 0.536
relative viability ([19]; first compound 0.01581 µM): 0.629
relative viability ([19]; first compound 0.1581 µM): 0.521
relative viability ([19]; first compound 0.5 µM): 0.55
relative viability ([20]; first compound 0.005 µM): 0.718
relative viability ([20]; first compound 0.01581 µM): 0.765
relative viability ([20]; first compound 0.05 µM): 0.752
relative viability ([20]; first compound 0.1581 µM): 0.718
relative viability ([20]; first compound 0.5 µM): 0.592
relative viability ([21]; first compound 0.005 µM): 0.63
relative viability ([21]; first compound 0.01581 µM): 0.685
relative viability ([21]; first compound 0.05 µM): 0.618
relative viability ([21]; first compound 0.1581 µM): 0.637
relative viability ([21]; first compound 0.5 µM): 0.665
relative viability ([22]; first compound 0.005 µM): 0.607
relative viability ([22]; first compound 0.01581 µM): 0.9
relative viability ([22]; first compound 0.05 µM): 0.683
relative viability ([22]; first compound 0.1581 µM): 0.475
relative viability ([22]; first compound 0.5 µM): 0.597
